# Assay results as given in patent US9969715B2, “Compounds useful for treating cancer” (ABIVAX, priority 2012, dated 2018).
# Read-outs that look alike come from different tables or passages of the source.
# Tests used:
# [1] = tested on: MDA-MB231-luc-D3H2LN cells; assay: Invasion of MDA-MB231-D3H2LN cells into collagen (procedure 1, 24 h drug incubation); type: cell-based, human; settings: for anti-invasive activity (in words): first set of experiments, procedure 1; for Invasion av.: number of cells per valid field at 50 μm, fold inhibitory effect compared to 10 μM Y-27632: procedure 1, first set of experiments
# Protocol: It is to be noted that both Procedures 1 and 2 are invasion assays to test effect of drug compounds on invasion. They are both fully identical except for the time of incubation with the drug.
# Here, invasion (into collagen) is the number of cells per valid field at 50 μm fold inhibitory effect compared to 10 μM Y-27632.
# Standard Operating Procedure 1:
# Said procedure is as described in example 15 except with respect to (i) the last step during day 1 “preparation of the invasion assay” and “treatment with the drugs” and days 2 and 3 which are detailed hereinafter and (ii) the fact that no concentration nor toxicity is determined at the end.
# add each 33 μl/well of the 4× concentrated drug solutions in MEM+0.1% FBS to the corresponding wells in all three plates, according to the plate maps above
# incubate 24 h at 37° C./5% CO2
# The analysis as performed in day 5 in example 15 is performed exactly under the same conditions in day 3 in the framework of the present procedure 1.
# [2] = tested on: MDA-MB231-luc-D3H2LN cells; assay: Toxicity assay under normal cell culture conditions (MTS), MDA cells; type: cell-based, human; settings: for MDA tox: 50% tox. at (μM) av: MDA-MB231-luc-D3H2LN cells, MEM+10% FBS, 72 h incubation, MTS; for toxicity on MDA-MB231 compared to comparative compound (in words): 1 vs C88 (112), 3 vs 583, 4 vs 585
# How it was run: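 Under normal culture conditions (MEM with 10% FBS), MDA-MB231-luc-D3H2LN cells (2000/well) were exposed to compound concentration series for 72 h. Viability measured by MTS assay. Value is the concentration giving 50% toxicity.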
# [3] = tested on: MDA-MB231-luc-D3H2LN cells; assay: Invasion of MDA-MB231-D3H2LN cells into collagen (example 15 = procedure 2, 48 h drug pre-incubation); type: cell-based; settings: for anti-invasive activity (in words): second set of experiments, procedure 2 (example 15); for invasiveness inhibition compared to comparative compound (in words): 1 vs C88 (112), 4 vs 585
# How it was run: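 Cells embedded at the bottom of collagen gels were pre-treated 48 h with compound in 0.025% FBS, then stimulated with 5% FBS for 24 h at 37° C. Nuclei were imaged at 0, 25 and 50 µm to give mean invasion distance, with MTS viability also measured. Value is the concentration giving 50% of the effect of 10 µM Y-27632.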
# [4] = tested on: human PBMC; assay: Toxicity assay under normal cell culture conditions (MTS), PBMC; type: cell-based; settings: for PBMC tox.: 50% tox. at (μM) av: human PBMC, RPMI+10% FBS+IL-2, 72 h incubation, MTS; for toxicity on PBMC compared to comparative compound (in words): 1 vs C88 (112), 3 vs 583, 4 vs 585
# How it was run: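 Human PBMC (75000/well) in RPMI + 10% FBS + IL-2 were exposed to compounds for 72 h, with viability read by MTS. Concentration-response curves gave the concentration producing 50% toxicity.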
# [5] = tested on: MDA-MB231-luc-D3H2LN cells; assay: Viability (MTS) assay on the cells in collagen under invasion assay conditions; type: cell-based, human; settings: loss of viability at the concentration giving 0.5 × effect of 10 μM Y-27632, invasion assay conditions
# How it was run: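 Run on cells embedded in collagen after a further 24 h, on serum-starved cells and in parallel on cells in 10% FBS. MTS reagent 3–4 h at 37 °C, absorbance at 490 nm; background-corrected signals expressed as % of untreated control.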
# [6] = target: T1, hERG channel (Homo sapiens, UniProt Q12809); assay: hERG channel inhibition (electrophysiology, hERG-transfected HEK293 cells); type: cell-based; settings: for % hERG inhibition in transfected HEK (n = 3) at 1 μM av: 1 μM compound; for % hERG inhibition in transfected HEK (n = 3) at 10 μM av: 10 μM compound; for hERG inhibition compared to comparative compound (in words): 1 vs C88 (112), 3 vs 583, 4 vs 585
# T1 construct: host or cells: HEK293
# Protocol: Performed by Porsolt & Partners (Z. A. de Glatigné, 53940 Le Genest-Saint-Isle, France). Briefly, each 3 hERG-transfected HEK293 cells were superfused with the compounds at 1 and 10 μM, and the hERG channel current was measured by electrophysiology, as described by Crumb et al., J. Pharmacol. Exp. Ther. 2000.
# [7] = Homo sapiens, procedure 2, second set of experiments, read-out: Invasion Av.: concentration of the compound necessary to reach 50% of the inhibition effect compared to 10 μM Y-27632
# [8] = concentration giving 50% of the anti-invasive effect of 10 μM Y-27632, 48 h pre-incubation, 24 h with 5% FBS, read-out: MDA: Inhib. of invasion: 0.5 × eff. of 10 μM Y-27632 at (μM) av
# T1 sequence (Q12809 whole entry): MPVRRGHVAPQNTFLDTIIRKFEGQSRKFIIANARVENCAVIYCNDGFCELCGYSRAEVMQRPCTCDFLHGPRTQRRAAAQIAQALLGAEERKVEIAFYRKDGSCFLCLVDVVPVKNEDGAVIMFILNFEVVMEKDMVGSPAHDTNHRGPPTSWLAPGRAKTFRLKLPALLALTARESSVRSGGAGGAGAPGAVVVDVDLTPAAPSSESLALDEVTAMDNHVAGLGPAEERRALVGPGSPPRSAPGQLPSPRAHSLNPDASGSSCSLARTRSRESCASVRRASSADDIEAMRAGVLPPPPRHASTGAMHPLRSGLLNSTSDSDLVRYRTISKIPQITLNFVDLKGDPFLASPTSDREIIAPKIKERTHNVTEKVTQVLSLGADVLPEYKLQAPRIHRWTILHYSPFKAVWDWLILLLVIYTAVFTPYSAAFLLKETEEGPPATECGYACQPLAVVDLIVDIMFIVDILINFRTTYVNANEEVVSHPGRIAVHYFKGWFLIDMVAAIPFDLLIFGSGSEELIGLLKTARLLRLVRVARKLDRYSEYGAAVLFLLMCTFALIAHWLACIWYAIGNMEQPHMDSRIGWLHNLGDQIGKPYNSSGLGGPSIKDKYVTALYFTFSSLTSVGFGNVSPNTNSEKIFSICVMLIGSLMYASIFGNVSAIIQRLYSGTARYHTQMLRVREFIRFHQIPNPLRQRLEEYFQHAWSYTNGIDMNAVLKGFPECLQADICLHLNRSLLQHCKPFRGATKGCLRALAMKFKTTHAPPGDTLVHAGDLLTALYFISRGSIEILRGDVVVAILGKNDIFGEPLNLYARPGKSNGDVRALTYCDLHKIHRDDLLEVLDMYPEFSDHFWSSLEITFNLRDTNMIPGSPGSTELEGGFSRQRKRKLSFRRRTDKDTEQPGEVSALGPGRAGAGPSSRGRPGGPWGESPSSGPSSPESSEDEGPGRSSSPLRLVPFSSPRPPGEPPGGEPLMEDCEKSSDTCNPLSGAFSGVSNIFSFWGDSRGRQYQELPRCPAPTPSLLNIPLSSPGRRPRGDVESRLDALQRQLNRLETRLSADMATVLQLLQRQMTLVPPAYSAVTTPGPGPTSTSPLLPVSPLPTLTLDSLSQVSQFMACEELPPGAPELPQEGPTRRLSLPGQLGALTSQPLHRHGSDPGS
Structure (SMILES),anti-invasive activity (in words) [1],"Invasion av.: number of cells per valid field at 50 μm, fold inhibitory effect compared to 10 μM Y-27632 [1]",MDA tox: 50% tox. at (μM) av [2] [µM],"IC50 [3, 7] [µM]","IC50 [3, 8] [µM]",anti-invasive activity (in words) [3],PBMC tox.: 50% tox. at (μM) av [4] [µM],(+ MDA tox. under these cond.) % tox [5] [%],% hERG inhibition in transfected HEK (n = 3) at 1 μM av [6] [%],% hERG inhibition in transfected HEK (n = 3) at 10 μM av [6] [%],toxicity on MDA-MB231 compared to comparative compound (in words) [2],invasiveness inhibition compared to comparative compound (in words) [3],toxicity on PBMC compared to comparative compound (in words) [4],hERG inhibition compared to comparative compound (in words) [6]
CCN(CC)CCCNC(=O)c1cccc(Nc2cccc(NC(=O)c3cccnc3)c2)c1 [FMMB46.1],no effect was observed,0.02,–,–,–,–,–,–,–,–,–,–,–,–
"CCN(CC)CCCNC(=O)c1cccc(Nc2cccc(/C=C/c3ccncc3)c2)c1 [Compound C88, reference compound]",anti-invasive activity was detected,1,10,0.39,0.39,anti-invasive activity is detected,10,<10,55,92,–,–,–,–
"O=C(NCCCN1CCCC1)c1cccc(Nc2cccc(C(=O)Nc3ccncc3)c2)c1 [Compound 4, N-(pyridin-4-yl)-3-((3-((3-(pyrrolidin-1-yl)propyl)carbamoyl)phenyl)amino)benzamide]",–,–,54,–,0.21,–,42,<10,6,59,less toxic,more potent,less toxic,less hERG inhibition
"CCN(CC)CCCNS(=O)(=O)c1cccc(Nc2cccc(C(=O)Nc3ccncc3)c2)c1 [Compound 5, 3-((3-(N-(3-(diethylamino)propyl)sulfamoyl)phenyl)amino)-N-(pyridin-4-yl)benzamide]",–,–,68,–,1.31,–,74,<10,1,29,–,–,–,–
"O=C(NCCCN1CCOCC1)c1cccc(Nc2cccc(C(=O)Nc3ccncc3)c2)c1 [Compound 3, N-(3-morpholinopropyl)-3-((3-(pyridin-4-ylcarbamoyl)phenyl)amino)benzamide]",–,–,51,–,0.29,–,51,<10,14,54,less toxic,–,less toxic,less hERG inhibition
"O=C(Nc1ccncc1)c1cccc(Nc2cccc(S(=O)(=O)NCCCN3CCOCC3)c2)c1 [Compound 12, 3-((3-(N-(3-morpholinopropyl)sulfamoyl)phenyl)amino)-N-(pyridin-4-yl)benzamide]",–,–,60,–,0.46,–,54,<10,11,55,–,–,–,–
"CCN(CC)CCCNC(=O)c1cccc(Nc2cccc(C(=O)Nc3ccncc3)c2)c1 [Compound 1, N-(3-(diethylamino)propyl)-3-((3-(pyridin-4-ylcarbamoyl)phenyl)amino)benzamide]",–,–,46,0.13,0.13,anti-invasive activity is detected,51,<10,13,47,less toxic,more potent,less toxic,less hERG inhibition
"O=C(Nc1ccncc1)c1cccc(Nc2cccc(S(=O)(=O)NCCCN3CCCCC3)c2)c1 [Compound 9, 3-((3-(N-(3-(piperidin-1-yl)propyl)sulfamoyl)phenyl)amino)-N-(pyridin-4-yl)benzamide]",–,–,44,–,0.28,–,36,<10,5,50,–,–,–,–
